Source: US8898047B2, “Methods for identifying inhibitors against viruses that use a class I fusion protein” (Janssen Pharmaceuticals NV, priority 2008, dated 2014)

Assays:
[1] = molecular target: IQN57 (HR1 hydrophobic pocket) (Human respiratory syncytial virus A, UniProt P03420); conditions: 30 μM compound, 20° C., HR1 alone
Method: 20 μM biotinylated-IQN57 was immobilized on a Streptavidin-certified sensor chip (GE Healthcare, Diegem, Belgium) surface in PBS at a flow rate of 10 μl/min and a contact time of 7 min. A reference flow cell was used as a control for nonspecific binding and refractive index changes. […] Several PBS+5% dimethylsulfoxide (DMSO; Sigma Aldrich NV, Bornem, Belgium) buffer blanks were injected over the course of an experiment for double referencing. The flow system was washed between sample injections with running buffer containing 50% DMSO, and the immobilized surface was regenerated with one injection of 0.2% sodiumdodecylsulfate for 30 sec. SPR biosensor data were collected on a BIAcore S51. All experiments were conducted at 20° C.

[2] = molecular target: biotin-labeled IQN57 / FITC-labeled C45 (HR1-CTC and HR2) (Human respiratory syncytial virus A, UniProt P03420); conditions: 6HB-formation ELISA, FIG. 3E
Method: White streptavidin-coated 96-well plates (NoAb Biodiscoveries, Mississauga, Canada) were blocked with PBS+5% BSA for 1 h and then washed three times with PBS. 10 nM biotin-labeled IQN57 dissolved in PBS+1% BSA was non-covalently bound to the surfaces of the 96-well plate for 30 min and then wells were washed again 3 times with PBS. […] Subsequently, POD-conjugated anti-FITC Fab fragment (1:5000) (Roche Applied Science, Vilvoorde, Belgium) in PBS+1% BSA was administered to the wells and incubated for 30 min. Finally, wells were washed again three times with PBS, Supersignal West Femto chemiluminescent substrate from Pierce (Perbio Science, Erembodegem, Belgium) added and signals were analyzed on a ViewLux UltraHTS microplate reader (Perkin Elmer, Zaventem, Belgium). Assay conditions without addition of biotin-labeled IQN57, FITC-labeled C45, POD-conjugated anti-FITC Fab fragment, or chemiluminescent substrate were included as negative controls or control of background signal in each of the experiments. In addition, assay conditions with saquinavir, Fuzeon® (T20), or the HIV-1-derived HR1 peptide (biotin-labeled IQN36) were used as specificity controls in each experiment.

HR1-derived peptide = conditions: prior art (Cianci et al.); cited from earlier work
[3] = molecular target: T1, HR1 (IQN57) and HR2 (C45) heptad-repeat peptides (Human respiratory syncytial virus A, UniProt P03420); type: binding, hRSV; conditions: competition assay, FIG. 3C
T1 construct: IQ trimerisation segment (GCN4-pIQI-type coiled coil)

RSV = RSV antiviral cellular assay; type: cell-based, hRSV; conditions: for EC50: human respiratory syncytial virus, pEC50 = -log10 EC50 (M), RSV antiviral cellular assay, read-out: In vitro activity (pEC50) (converted); for log reduction in activity on structural modification: reduction of antiviral activity versus parent compound of the Compound Z series

biotin-labeled IQN57 / FITC-labeled C45 (HR1-CTC and HR2), sequence (P03420 476-520): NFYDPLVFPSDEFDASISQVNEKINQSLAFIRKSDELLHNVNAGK
biotin-labeled IQN57 / FITC-labeled C45 (HR1-CTC and HR2), sequence (P03420 153-209): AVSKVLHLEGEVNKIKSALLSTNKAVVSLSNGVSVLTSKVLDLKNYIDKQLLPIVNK
IQN57 (HR1 hydrophobic pocket), sequence (P03420 153-209): as above
T1 sequence (P03420 153-209): as above
T1 sequence (P03420 476-520): as the sequence (P03420 476-520) above

| Structure (SMILES) | EC50 (RSV) | log reduction in activity on structural modification (RSV) | other results |
| --- | --- | --- | --- |
| O=c1n(Cc2nc3ccccc3n2CCCCO)c2cnccc2n1C1CC1 [BMS433771, reference compound] | – | – | Binding to HR1 (IQN57) by SPR [1]: do not bind to the HR1 hydrophobic pocket alone; Effect on interaction of HR2 (C45) with HR1-CTC (IQN57) [2]: facilitate the interaction of HR2 with the HR1-CTC; Binding to an HR1-derived peptide alone (HR1-derived peptide): relatively weak |
| Cc1ccc(CCCO)c(NCc2ccc3nc(NCCCN4CCOCC4)n(Cc4nc(C)ccc4O)c3c2)c1 [Compound 1, 2-[6-{[2-(3-hydroxy-propyl)-5-methyl-phenylamino]-methyl}-2-(3-morpholin-4-yl-propylamino)-benzoimidazol-1-ylmethyl]-6-methyl-pyridin-3-ol] | – | – | Competition with compound X for binding [3]: competed for the same binding pocket; Binding to HR1 (IQN57) by SPR [1]: do not bind to the HR1 hydrophobic pocket alone; Effect on interaction of HR2 (C45) with HR1-CTC (IQN57) [2]: facilitate the interaction of HR2 with the HR1-CTC |
| Cc1cccc(NCc2ccc3nc(NCCCN4CCOCC4)n(Cc4nc(C)ccc4O)c3c2)c1 [Compound 2] | 2.51e-09 M | 1.3 log | – |
| Cc1ccc(O)c(Cn2c(NCCCN3CCOCC3)nc3ccccc32)n1 [Compound 3] | 1.58e-07 M | – | further log decrease in potency (RSV; further truncation of the methylamino-toluene moiety, relative to compound 2): 0.8 log |
| Cc1ccc(CCCO)c(NCc2ccc3nc(N)n(Cc4nc(C)ccc4O)c3c2)c1 [Compound 4] | 3.16e-11 M | – | log improvement in activity (RSV; removal of the morpholinopropyl group): 0.6 log |
| Cc1ccc(CCCO)c(NCc2ccc3ncn(Cc4nc(C)ccc4O)c3c2)c1 [Compound 5] | 1.26e-08 M | 2.6 log | – |
| COc1ccc(C)nc1Cn1c(NCCCN2CCOCC2)nc2ccc(CNc3cc(C)ccc3CCCO)cc21 [Compound 6] | 2.51e-09 M | 1.3 log | – |
